Earlier results, collected in patent US20130266557A1, “METHODS FOR TREATMENT OF A SARCOMA USING AN EPIMETABOLIC SHIFTER (COENZYME Q10)” (priority 2009, published 2013).

Tested on: cancer
Conditions: Mazzio 2006; cited from earlier work

For `COC1=C(OC)C(=O)C(C)=CC1=O` [DMBQ, 2,3-dimethoxy-5-methyl-1,4-benzoquinone, reference compound], the “Potency as an anti-cancer agent relative to CoQ10” value is given as greater than 1000 times.
